In brackets after ≈: the same amount, converted by molar mass. One block for each compound: values may come before it.
What was measured:
[1] = tested on: S. aureus, S. pneumoniae, S. pyogenes, and E. faecalis; assay: Broth microdilution MIC (CLSI), major Gram-positive organisms; assay type: cell-based; details: against some strains of S. aureus
Experimental: (§1) Compounds of the present invention were tested for antibacterial activity against a variety of pathogenic organisms including S. aureus, S. pneumoniae, S. pyogenes, E. faecalis, H. influenza and M. catarrhalis using a standard broth microdilution method to determine their minimum inhibitory concentrations (MICs). All compounds were tested using standard methods in accordance with CLSI guidelines (Clinical and Laboratory Standards Institute). […] Compounds of the present invention were not compromised by existing resistance to all drug classes tested, including β-lactams, glycopeptides, oxazolidinones, macrolides, and fluoroquinolones. In particular, the compound described in Example 31 was active against methicillin-(oxacillin-) resistant S. aureus (MRSA), vancomycin-intermediate S. aureus (VISA), linezolid-resistant S. aureus, methicillin-(oxacillin-) resistant S. epidermidis, macrolide-resistant S. pyogenes, macrolide-, penicillin-, and levofloxacin-resistant S. pneumoniae, and vancomycin-resistant E. faecalis (VRE).

[2] = tested on: methicillin-(oxacillin-) resistant S. epidermidis; assay: Antibacterial activity against resistant strains (MIC); assay type: cell-based
Experimental: as §1

[3] = tested on: vancomycin-resistant E. faecalis (VRE); assay: as above; assay type: cell-based
Experimental: as §1

[4] = tested on: macrolide-resistant S. pyogenes; assay: as above; assay type: cell-based
Experimental: as §1

[5] = tested on: linezolid-resistant S. aureus; assay: as above; assay type: cell-based
Experimental: as §1

[6] = tested on: macrolide-, penicillin-, and levofloxacin-resistant S. pneumoniae; assay: as above; assay type: cell-based
Experimental: as §1

[7] = tested on: methicillin-(oxacillin-) resistant S. aureus (MRSA); assay: as above; assay type: cell-based
Experimental: as §1

[8] = tested on: vancomycin-intermediate S. aureus (VISA); assay: as above; assay type: cell-based
Experimental: as §1

E. faecalis = assay: Time kill kinetic studies; assay type: cell-based
S. pneumoniae = assay: Time kill kinetic studies; assay type: cell-based
S. aureus = assay: Time kill kinetic studies; assay type: cell-based
[9] = tested on: clinically relevant resistant strains; assay: MICs in clinically relevant resistant strains (all listed strains together); assay type: cell-based; details: for MIC: range over the resistant strains listed
Experimental: as §1

[10] = tested on: vancomycin-, macrolide-, and ciprofloxacin-resistant E. faecium; assay: Antibacterial activity against resistant strains (MIC); assay type: cell-based
Experimental: as §1

S. epidermidis = assay: Time kill kinetic studies; assay type: cell-based
[11] = tested on: MRSA, vancomycin-resistant E. faecalis (VRE), vancomycin-resistant E. faecium and macrolide-resistant S. pyogenes; assay: MIC90 against resistant Gram-positive bacteria; assay type: cell-based, S. aureus
Experimental: as §1

S. pyogenes = assay: Time kill kinetic studies; assay type: cell-based
E. faecium = assay: Time kill kinetic studies; assay type: cell-based
S. pyogenes PolC = S. pyogenes PolC (Streptococcus pyogenes, UniProt Q8NZB5); assay: Inhibition of PolC primer extension activity (scintillation proximity assay); assay type: biochemical; details: serial 2-fold dilutions, XLfit
Sequence of S. pyogenes PolC (Q8NZB5 whole entry): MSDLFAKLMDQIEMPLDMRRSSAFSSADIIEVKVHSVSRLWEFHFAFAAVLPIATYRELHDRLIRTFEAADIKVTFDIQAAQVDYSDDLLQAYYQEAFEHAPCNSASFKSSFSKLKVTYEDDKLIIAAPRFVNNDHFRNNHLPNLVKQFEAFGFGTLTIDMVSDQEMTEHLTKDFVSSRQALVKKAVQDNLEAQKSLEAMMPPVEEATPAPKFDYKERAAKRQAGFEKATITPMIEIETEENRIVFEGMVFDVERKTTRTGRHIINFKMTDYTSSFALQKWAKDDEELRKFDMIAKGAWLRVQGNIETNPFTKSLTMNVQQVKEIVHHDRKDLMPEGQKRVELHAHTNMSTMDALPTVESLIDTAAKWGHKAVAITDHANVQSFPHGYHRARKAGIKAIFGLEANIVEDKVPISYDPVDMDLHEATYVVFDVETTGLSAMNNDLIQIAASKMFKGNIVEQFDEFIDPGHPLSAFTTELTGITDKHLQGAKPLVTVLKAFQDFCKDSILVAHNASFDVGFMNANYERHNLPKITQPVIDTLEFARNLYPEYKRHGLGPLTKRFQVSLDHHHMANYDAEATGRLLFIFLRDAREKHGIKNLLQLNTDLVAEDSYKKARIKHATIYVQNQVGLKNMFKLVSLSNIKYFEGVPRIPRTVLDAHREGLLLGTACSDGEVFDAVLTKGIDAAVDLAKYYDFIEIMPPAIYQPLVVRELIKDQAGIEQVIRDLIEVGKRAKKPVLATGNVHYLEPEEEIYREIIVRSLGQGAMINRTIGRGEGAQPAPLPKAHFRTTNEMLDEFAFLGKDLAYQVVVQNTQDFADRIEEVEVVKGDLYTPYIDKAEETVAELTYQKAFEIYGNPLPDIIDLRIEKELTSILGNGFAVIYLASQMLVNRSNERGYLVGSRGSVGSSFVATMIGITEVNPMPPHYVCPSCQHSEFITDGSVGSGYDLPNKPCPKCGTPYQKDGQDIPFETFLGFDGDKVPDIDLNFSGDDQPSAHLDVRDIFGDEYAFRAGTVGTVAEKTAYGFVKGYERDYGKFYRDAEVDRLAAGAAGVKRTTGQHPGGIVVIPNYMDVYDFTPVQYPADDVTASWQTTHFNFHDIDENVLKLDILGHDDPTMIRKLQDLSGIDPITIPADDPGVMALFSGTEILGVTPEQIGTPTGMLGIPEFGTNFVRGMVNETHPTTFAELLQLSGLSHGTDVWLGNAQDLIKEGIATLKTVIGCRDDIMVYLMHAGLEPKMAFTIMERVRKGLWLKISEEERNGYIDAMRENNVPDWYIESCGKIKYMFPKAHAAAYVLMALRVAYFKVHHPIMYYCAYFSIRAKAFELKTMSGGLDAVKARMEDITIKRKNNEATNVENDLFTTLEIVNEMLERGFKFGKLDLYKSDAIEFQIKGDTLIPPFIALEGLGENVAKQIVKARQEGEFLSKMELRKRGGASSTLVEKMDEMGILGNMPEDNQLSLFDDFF
Experimental: The polC gene from Streptococcus pyogenes was overexpressed and PolC was purified as described in PCT/JUS05/15548. Primer extension activity of PolC was measured using 1 μM oligonucleotide primer-template (primer strand 5′-ACCAGTGAGACGGGCAACA (SEQ ID NO: 1), template strand 5′-[…] SEQ ID NO: 2)). Reactions contained 10 mM magnesium acetate, 50 mM Tricine/Tris pH 7.8, 2.4% (w/v) polyethylene glycol (˜8000 MW), 0.024% pluronic F68, 1 mM dithiothreitol, 20 μM dATP, 20 μM dCTP, 0.5 μM dGTP, 0.72 μM dTTP, 0.28 μM 3H-dTTP (0.005 μCi/μL), 8% DMSO and 15 nM PolC. Reactions (25 μL) were incubated for 10 minutes at room temperature and stopped by addition of an equal volume of 100 mM EDTA. Incorporation of radiolabelled dTTP was measured by scintillation proximity assay by addition of 100 μL of 1 mg/mL PEI-PVT beads in 300 mM citrate pH 3.0.
Compounds of formula (I) were tested for inhibition of S. pyogenes PolC activity. Serial 2-fold dilutions of compounds were tested for inhibition of PolC activity and IC50's were determined (XLfit). […] These compounds were specific for prokaryotic DNA polymerase, showing little or no inhibition of eukaryotic S. cerevisiae polymerase delta at concentrations up to 160 μM.

MIC [1]: 0.12 to 4 µg/mL (≈ 0.328 to 10.9 µM)
SMILES: COCCOCc1csc(NC(=O)NCc2ccc3c(c2)OCO3)n1 [Example 52, 1-Benzo[1,3]dioxol-5-ylmethyl-3-[4-(2-methoxy-ethoxymethyl)-thiazol-2-yl]-urea]

IC50 (S. pyogenes PolC): 0.11 to 25 µM
SMILES: COCc1csc(NC(=O)NCc2ccc(Cl)c(Cl)c2)n1 [Example 19, 1-(3,4-Dichlorobenzyl)-3-(4-(methoxymethyl)thiazol-2-yl)urea]

IC50 (S. pyogenes PolC): 0.11 to 25 µM
SMILES: COCCOCc1csc(NC(=O)NCc2ccc(Br)cc2)n1 [Example 56, 1-(4-bromobenzyl)-3-(4-((2-methoxyethoxy)methyl)thiazol-2-yl)urea]

The remaining lines, values behind:

SMILES: O=C(NCc1ccc(Cl)c(Cl)c1)Nc1nc(COCCO)cs1 [Example 31, 1-(3,4-Dichloro-benzyl)-3-[4-(2-hydroxy-ethoxymethyl)-thiazol-2-yl]-urea]
activity against resistant strain ([2]; methicillin-(oxacillin-) resistant S. epidermidis): active
activity against resistant strain ([3]; vancomycin-resistant E. faecalis (VRE)): active
activity against resistant strain [4]: active
activity against resistant strain [5]: active
activity against resistant strain [6]: active
activity against resistant strain [7]: active
activity against resistant strain [8]: active
time kill kinetics result (E. faecalis): bactericidal
time kill kinetics result (S. pneumoniae): bactericidal
time kill kinetics result (S. aureus): bactericidal
MICs in sensitive versus drug resistant strains [9]: comparable
MIC [9]: 1 to 32 µg/mL (≈ 2.66 to 85 µM)

SMILES: CS(=O)(=O)CCOCc1csc(NC(=O)NCc2ccc(Cl)c(Cl)c2)n1 [Example 28, 1-(3,4-Dichlorobenzyl)-3-(4-((2-(methylsulfonyl)ethoxy)methyl)thiazol-2-yl)urea]
activity against resistant strain ([2]; methicillin-(oxacillin-) resistant and mupirocin resistant S. epidermidis): active
activity against resistant strain ([3]; vancomycin-, macrolide-, and ciprofloxacin-resistant E. faecalis (VRE)): active
activity against resistant strain [4]: active
activity against resistant strain [5]: active
activity against resistant strain [6]: active
activity against resistant strain [7]: active
activity against resistant strain [8]: active
activity against resistant strain [10]: active
time kill kinetics result (S. epidermidis): bactericidal
time kill kinetics result (E. faecalis): bactericidal
MIC90 [11]: 1 to 8 µg/mL (≈ 2.28 to 18.2 µM)
time kill kinetics result (S. pneumoniae): bactericidal
time kill kinetics result (S. aureus): bactericidal
time kill kinetics result (S. pyogenes): bactericidal
time kill kinetics result (E. faecium): bactericidal
MICs in sensitive versus drug resistant strains [9]: comparable
MIC [9]: 0.5 to 4 µg/mL (≈ 1.14 to 9.12 µM)

SMILES: CC(=O)Nc1ccc(SCc2csc(NC(=O)NCc3ccc(Cl)c(Cl)c3)n2)cc1 [Example 149, 1-(3,4-dichlorobenzyl)-3-(4-((4-acetamidophenylthio)methyl)thiazol-2-yl)urea]
MIC [1]: 0.12 to 4 µg/mL (≈ 0.249 to 8.31 µM)

SMILES: CCCCOCc1csc(NC(=O)NCc2ccc(Cl)c(Cl)c2)n1 [Example 21, 1-(3,4-Dichlorobenzyl)-3-(4-(butoxymethyl)thiazol-2-yl)urea]
MIC [1]: 0.12 to 4 µg/mL (≈ 0.309 to 10.3 µM)

SMILES: O=C(NCc1ccc(Cl)c(Cl)c1)Nc1nc(CO)cs1 [Example 39, 1-(3,4-Dichlorobenzyl)-3-(4-(hydroxymethyl)thiazol-2-yl)urea]
IC50 (S. pyogenes PolC): 0.11 to 25 µM
MIC [1]: 0.12 to 4 µg/mL (≈ 0.361 to 12 µM)

From US8716320B2, “Antibacteriall heterocyclic ureas” (Replidyne, Inc., priority 2006, dated 2014)
